Reference: US20100168054A1, “Functionalized Beta 1,6 Glucosamine Disaccharides and Process for Their Preparation” (OM PHARMA, priority 2006, published 2010)
Where “and” joins values, the source holds several entries; their conditions need not be identical. Equal values may be shown once. Marks after values point to notes of the source that are not given here.

Legend:
Format in all cases: in vivo, BALB/c ByJ mice
[1] = test system: LACK-sensitized and challenged mice; assay: LACK-induced asthma model: eosinophils in bronchoalveolar lavages; conditions: for Eosino × 10^6, Mean ± SEM / Eosino × 10^6, individual mice: BAL; for Eosino × 10^6, individual mice: 1 mg/kg
Description: (§1) An example in vivo of the biological activity of two representative compounds of the invention is presented here. Using a mouse model of allergic asthma previously published (described in Julia et al. Immunity. 2002 February; 16(2):271-83), we aimed to investigate whether i.p. administrations of the synthetic molecules OM-174-DP and OM-174-MP-PD would inhibit airway inflammation in LACK-sensitized and challenged mice. To this goal, mice were treated either all along asthma induction (prophylactic model) or therapeutically (i.e. three times after animals have been sensitized to the allergen, the protein LACK). As read-outs, eosinophils were enumerated in bronchoalveolar lavages (BAL), and the well known markers of allergic asthma, namely the Th2 cytokines IL-4, IL-5, and IL-13 were quantified from the lungs. Moreover the level of plasmatic IgE was also reported.
(§2) OM-174-DP (i.p.)-treated LACK-sensitized and challenged mice (6 mice) Treatment and Schedule with Test or Control Article Experiment started at day 0. On days 0, 2, 3, 4, 7, 9, 10 11, and 12, mice of groups C, and D were treated i.p. with synthetic OM-174-DP (compound 1b) and OM-174-MP-PD (compound 19) respectively at the dose of 1 mg/Kg (20 μg per mouse). Mice of groups E were treated therapeutically i.p. on days 15, 17 and 19 at the dose of 1 mg/Kg (20 μg per mouse).
(§3) On day 1 and day 8, mice were sensitized i.p. with LACK/Alum. From day 16 to day 20, all the groups except group A mice were challenged with aerosols of a solution of LACK (0.15%). Group A received a saline solution (NaCl 0.9%) (group A) for 40 minutes instead.
For all the animals, Broncho-alveolar lavages (BAL) were performed. Two days after the last aerosol challenge, mice were bled and a canula was inserted into their trachea. Lungs were washed 3 times with 1 ml of warmed PBS. Cells were washed with PBS, and red blood cells were lysed using a red blood cell lysis buffer. Cells were further washed in PBS and counted. For differential BAL cell counts, cytospin preparations were made and stained with Wright/Giemsa. At least 400 cells were scored for each slide, and the numbers of lymphocytes, neutrophils, eosinophils, and macrophages/DC/pneumocytes (scored as other mononuclear cells) were determined by microscopic examination. Only eosinophilia is reported here.

[2] = test system: LACK-sensitized and challenged mice; assay: LACK-induced asthma model: pulmonary cytokines
Description: as §1, §2, §3
To analyze pulmonary cytokine contents, lungs were harvested and left lungs were used to prepare protein extracts. 400 μl were recovered for each left lung. Cytokines (IL-4 and IL-13 in a first series of analyses, and then IL-5 and IFN-γ) were measured by multiplex analysis using FACSArray. The results, normalized for the protein content, are presented in pg/ml.

[3] = test system: LACK-sensitized and challenged mice; assay: LACK-induced asthma model: LACK-specific IgE in sera; conditions: therapeutic
Description: as §1, §2, §3
To analyze specific IgE contents, mice of groups A, B, and G were bled by heart puncture two days after the last aerosol, and sera were prepared. LACK-specific IgE were measured by ELISA.

[4] = prophylactic, i.p. 1 mg/Kg on days 0, 2, 3, 4, 7, 9, 10, 11, 12
[5] = prophylactic, i.p. 1 mg/Kg, 1 mg/kg
[6] = therapeutic, i.p. 1 mg/Kg on days 15, 17, 19
[7] = therapeutic, i.p. 1 mg/Kg on days 15, 17, 19, 1 mg/kg

Structure (SMILES)	Eosino × 10^6, Mean ± SEM [1, 4]	Eosino × 10^6, individual mice [1, 4]	times less BAL eosinophilia compared to positive asthmatic group (B) ([1]; prophylactic)	fold decrease of IL-4 in lungs compared to group B ([2]; prophylactic)	fold reduction of IL-13 compared to asthmatic mice ([2]; prophylactic)	Mean IL13 ([2]; prophylactic, i.p. 1 mg/Kg)	Mean IL-4 ([2]; prophylactic, i.p. 1 mg/Kg)	IL13 in lungs, individual mice [2, 5]	IL-4 in lungs, individual mice [2, 5]	further results
CCCCCCCCCCCC(=O)O[C@H](CCCCCCCCCCC)CC(=O)N[C@H]1[C@H](OC[C@H]2O[C@H](OCC(O)CO)[C@H](NC(=O)C[C@H](O)CCCCCCCCCCC)[C@@H](O)[C@@H]2O)O[C@H](CO)[C@@H](OP(=O)(O)O)[C@@H]1O (stereo partly drawn) [compound 19, 2,3-Dihydroxypropyl-2-Deoxy-6-O-[2-deoxy-4-O-(dihydroxyphosphoryl)-2-[(R)-3-dodecanoyloxytetradecanoylamino]-β-D-glucopyranosyl]-2-[(R)-3-hydroxytetradecanoylamino]-α-D-glucopyranoside]	100411 ± 80738 × 10^6	33286 × 10^6 and 64010 × 10^6 and 47018 × 10^6 and 252294 × 10^6 and 82555 × 10^6 and 123305 × 10^6	about 8 times	4 fold	3 fold	16.62* pg/ml	2.09** pg/ml	12.08 pg/mL and 17.1 pg/mL and 8.59 pg/mL and 30.6 pg/mL and 16.14 pg/mL and 15.21 pg/mL	1.01 pg/mL and 1.47 pg/mL and 0.91 pg/mL and 5.68 pg/mL and 1.79 pg/mL and 1.66 pg/mL	–
CCCCCCCCCCCC(=O)O[C@H](CCCCCCCCCCC)CC(=O)NC1C(OCC2OC(OP(=O)(O)O)C(NC(=O)C[C@H](O)CCCCCCCCCCC)C(O)C2O)OC(CO)C(OP(=O)(O)O)C1O (stereo partly drawn) [compound 1b, 2-Deoxy-6-O-[2-deoxy-4-O-(dihydroxyphosphoryl)-2-[(R)-3-dodecanoyloxytetradecanoylamino]-β-D-glucopyranosyl]-2-[(R)-3-hydroxytetradecanoylamino]-α-D-glucopyranosyl dihydrogenophosphate]	109781 ± 139453 × 10^6	75359 × 10^6 and 385612 × 10^6 and 33412 × 10^6 and 54158 × 10^6 and 105352 × 10^6 and 4792 × 10^6	about 8 times	6 fold	4 fold	13.40* pg/ml	1.50** pg/ml	8.39 pg/mL and 25.39 pg/mL and 8.2 pg/mL and 24.29 pg/mL and 12.52 pg/mL and 1.59 pg/mL	1.1 pg/mL and 3.33 pg/mL and 0.71 pg/mL and 2.43 pg/mL and 1.23 pg/mL and 0.17 pg/mL	Eosino × 10^6, Mean ± SEM [1, 6]: 13923 ± 7362 × 10^6; Eosino × 10^6, individual mice [1, 6]: 16744 × 10^6 and 3802 × 10^6 and 7411 × 10^6 and 21739 × 10^6 and 12500 × 10^6 and 21343 × 10^6; factor of decrease of eosinophil count compared to group B ([1]; therapeutic, three times): 64; Mean IgE ([3]; sera, i.p. 1 mg/Kg on days 15, 17, 19): 224.56* ng/ml; LACK-specific IgE, individual mice ([3]; sera, i.p. 1 mg/Kg on days 15, 17, 19, 1 mg/kg): 188 ng/mL and 159 ng/mL and 94 ng/mL and 382 ng/mL and 395 ng/mL and 129 ng/mL; fold less LACK-specific IgE compared to untreated LACK challenged mice [3]: 2.6 fold; fold reduction in IL-4 compared to group B ([2]; therapeutic): 4 fold; fold reduction in IL-13 compared to group B ([2]; therapeutic): 3 fold; fold reduction of IL-5 compared to untreated mice ([2]; therapeutic): 2.8 fold; reduction of IFN-γ levels compared to group B (in words) ([2]; therapeutic): reduced twofold; Mean IFN-γ [2, 6]: 1.38* pg/ml; Mean IL13 [2, 6]: 17.90* pg/ml; Mean IL-4 [2, 6]: 2.33** pg/ml; Mean IL-5 [2, 6]: 6.00** pg/ml; IFN-γ in lungs, individual mice [2, 7]: 1.62 pg/mL and 0.88 pg/mL and 0.94 pg/mL and 2.2 pg/mL and 0.81 pg/mL and 1.8 pg/mL; IL13 in lungs, individual mice [2, 7]: 20.35 pg/mL and 5.43 pg/mL and 9.93 pg/mL and 23.68 pg/mL and 21.99 pg/mL and 26.02 pg/mL; IL-4 in lungs, individual mice [2, 7]: 2.5 pg/ml and 1 pg/ml and 1.58 pg/ml and 3.48 pg/ml (2×) and 1.94 pg/ml; IL-5 in lungs, individual mice [2, 7]: 7.41 pg/mL and 1.06 pg/mL and 2.15 pg/mL and 9.23 pg/mL and 5.81 pg/mL and 10.33 pg/mL
